# Read-outs that look alike come from different tables or passages of the source.
# What was measured:
# CBP = CBP (Homo sapiens (Human), UniProt Q92793); test: In vitro CBP inhibition (AlphaScreen, biotinylated H4-tetraacetyl peptide); assay type: binding
# In short: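 His-tagged CBP expressed in E. coli (50 nM final) incubated with biotinylated H4K5/8/12/16(Ac) peptide (20 nM final) in 50 mM HEPES pH 7.3, 10 mM NaCl, 0.25 mM TCEP, 0.1% BSA, 0.005% Brij-35, 0.4% DMSO, 20 min at room temp.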
# BRD4 = BRD4 (Homo sapiens (Human), UniProt O60885); test: In vitro enzyme inhibition assay - BRD4 inhibition; assay type: binding; settings: BRD4 BD1, Table 30
# [1] = Table 30, read-out: CRREBBP IC50
# Chain of CBP (Q92793 1081-1197): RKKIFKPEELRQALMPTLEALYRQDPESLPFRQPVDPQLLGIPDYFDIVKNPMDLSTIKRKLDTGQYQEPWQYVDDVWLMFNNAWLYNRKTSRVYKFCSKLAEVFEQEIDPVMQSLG
"IC50 (CBP; AlphaScreen, Table 29, read-out: CBP IC50)",IC50 (CBP; [1]),IC50 (BRD4),SMILES
< 500 nM,< 500 nM,> 5000 nM,"Cn1cc(-c2cnn(CS(C)(=O)=O)c2)c(-c2ccccc2)cc1=O [Example 129, 1-methyl-5-(1-((methyl-sulfonyl)-methyl)-1H-pyrazol-4-yl)-4-phenylpyridin-2(1H)-one]"
–,> 5000 nM,< 500 nM,"Cc1cc(-c2nc(NS(C)(=O)=O)ncc2Oc2ccc(F)cc2F)cn(C)c1=O [N-(5-(2,4-difluorophenoxy)-4-(1,5-dimethyl-6-oxo-1,6-dihydropyridin-3-yl)pyrimidin-2-yl) methanesulfonamide]"
